Experimental data reported in the supplement of paper PMC10627819.

Legend:
Test in all cases: Bliss interaction score (quartile over a dose matrix) (fitness difference); higher = more antagonism (negative = synergy)
[1] = test system: B. subtilis 168
Procedure, shortened: (§1)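 The Bliss score is observed fitness minus expected fitness, where the expected value is the product of single-drug fitness values inferred from combination data. Fitness is OD595 at entry into stationary phase normalised to the plate's robust no-drug mean and capped at 1. Scores are reported as quartiles spanning technical, biological and donor/recipient replicates.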

[2] = test system: S. aureus DSM 20231
Procedure, shortened: as §1

[3] = test system: S. aureus Newman
Procedure, shortened: as §1

[4] = test system: S. pneumoniae D39V
Procedure, shortened: as §1
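Also: first quartile when negative (synergy) and third quartile when positive (antagonism).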

SMILES	Bliss interaction score [1]	Bliss interaction score [2]	Bliss interaction score [3]	Bliss interaction score [4]	Bliss interaction score ([1]; main component drawn)	Bliss interaction score ([2]; main component drawn)	Bliss interaction score ([3]; main component drawn)	Bliss interaction score ([4]; main component drawn)
N#CC(C#N)=NNc1cccc(Cl)c1 [CCCP] + CN[C@H](CC(C)C)C(=O)N[C@H]1C(=O)N[C@@H](CC(N)=O)C(=O)N[C@H]2C(=O)N[C@H]3C(=O)N[C@H](C(=O)N[C@H](C(=O)O)c4cc(O)cc(O)c4-c4cc3ccc4O)[C@H](O)c3ccc(c(Cl)c3)Oc3cc2cc(c3O[C@@H]2O[C@H](CO)[C@@H](O)[C@H](O)[C@H]2O[C@H]2C[C@](C)(N)[C@H](O)[C@H](C)O2)Oc2ccc(cc2Cl)[C@H]1O [Vancomycin]	0.0489	0.0309	-0.0614	0.0815				
CC(=O)Oc1ccccc1C(=O)O [Acetylsalicylicacid] + Oc1cc(Cl)ccc1Oc1ccc(Cl)cc1Cl [Triclosan]	0.129	-0.114	-0.0273	-0.0513				
Cc1ncc([N+](=O)[O-])n1CCO [Metronidazole] + CO[C@@]12[C@H](COC(N)=O)C3=C(C(=O)C(C)=C(N)C3=O)N1C[C@@H]1N[C@@H]12 [MitomycinC]	0.132	0.0443	0.0511	0.0827				
CN(C)[C@@H]1C(O)=C(C(N)=O)C(=O)[C@@]2(O)C(O)=C3C(=O)c4c(O)ccc(Cl)c4[C@@](C)(O)[C@H]3C[C@@H]12 [Clortetracycline] + C[n+]1ccc(-c2cc[n+](C)cc2)cc1 [Paraquat]	0.0974	0.0363	-0.0418	-0.026				
CC(=O)Oc1ccccc1C(=O)O [Acetylsalicylicacid] + CC(=O)NC[C@H]1CN(c2ccc(N3CCOCC3)c(F)c2)C(=O)O1 [Linezolid]	0.0401	-0.0728	0.0639	0.145				
CN(C)[C@@H]1C(O)=C(C(N)=O)C(=O)[C@@]2(O)C(O)=C3C(=O)c4c(O)ccc(Cl)c4[C@@](C)(O)[C@H]3C[C@@H]12 [Clortetracycline] + CN(C)C(=O)C(CCN1CCC(O)(c2ccc(Cl)cc2)CC1)(c1ccccc1)c1ccccc1 [Loperamide]	-0.221	0.0792	-0.0458	0.0856				
CC(=O)Oc1ccccc1C(=O)O [Acetylsalicylicacid] + Cc1ncc([N+](=O)[O-])n1CCO [Metronidazole]	0.203	0.0605	-0.0652	0.056				
CC(=O)Oc1ccccc1C(=O)O [Acetylsalicylicacid] + CC1(C)S[C@@H]2[C@H](NC(=O)[C@H](N)c3ccc(O)cc3)C(=O)N2[C@H]1C(=O)O [Amoxicillin]	0.192	0.078	-0.0753	0.0431				
CC(=O)Oc1ccccc1C(=O)O [Acetylsalicylicacid] + O=C(O)c1cn(C2CC2)c2cc(N3CCNCC3)c(F)cc2c1=O [Ciprofloxacin]	0.146	0.142	0.158	0.144				
Cc1ncc([N+](=O)[O-])n1CCO [Metronidazole] + CC1(C)S[C@@H]2[C@H](NC(=O)Cc3ccccc3)C(=O)N2[C@H]1C(=O)O [PenicillinG]	0.0322	0.0819	0.0592	0.114				
N#CC(C#N)=NNc1cccc(Cl)c1 [CCCP] + CCC(C)C1C(=O)NC(=C)C(=O)NC(C(=O)NC(CSCC(C(=O)N1)NC(=O)/C(=C/C)/NC(=O)C(C(C)CC)N)C(=O)NC2C(SCC(NC(=O)CNC(=O)C3CCCN3C2=O)C(=O)NC(CCCCN)C(=O)NC4C(SCC(NC(=O)CNC(=O)C(NC(=O)C(NC(=O)C(NC(=O)CNC4=O)C)CC(C)C)CCSC)C(=O)NC(CC(=O)N)C(=O)NC(CCSC)C(=O)NC(CCCCN)C(=O)NC5C(SCC6C(=O)NC(C(=O)NC(CSC(C(C(=O)N6)NC(=O)C(NC5=O)C)C)C(=O)NC(CO)C(=O)NC(C(C)CC)C(=O)NC(CC7=CN=CN7)C(=O)NC(C(C)C)C(=O)NC(=C)C(=O)NC(CCCCN)C(=O)O)CC8=CN=CN8)C)C)C)CC(C)C [Nisin]					0.0522	0.0712	-0.0401	-0.0317
CO/N=C(\C(=O)N[C@@H]1C(=O)N2C(C(=O)O)=C(COC(N)=O)CS[C@H]12)c1ccco1 [Cefuroxime] + CO[C@@]12[C@H](COC(N)=O)C3=C(C(=O)C(C)=C(N)C3=O)N1C[C@@H]1N[C@@H]12 [MitomycinC]	-0.211	-0.0745	-0.0903	0.0599				
CC(=O)Oc1ccccc1C(=O)O [Acetylsalicylicacid] + CO[C@@]12[C@H](COC(N)=O)C3=C(C(=O)C(C)=C(N)C3=O)N1C[C@@H]1N[C@@H]12 [MitomycinC]	-0.0648	0.0545	-0.0274	0.0652				
COc1cccc2c1C(=O)c1c(O)c3c(c(O)c1C2=O)C[C@@](O)(C(=O)CO)C[C@@H]3O[C@H]1C[C@H](N)[C@H](O)[C@H](C)O1 [Doxorubicin] + CC[C@H]1OC(=O)[C@H](C)[C@@H](O[C@H]2C[C@@](C)(OC)[C@@H](O)[C@H](C)O2)[C@H](C)[C@@H](O[C@@H]2O[C@H](C)C[C@H](N(C)C)[C@H]2O)[C@](C)(O)C[C@@H](C)C(=O)[C@H](C)[C@@H](O)[C@]1(C)O [Erythromycin]	0.0769	0.0463	0.0828	0.0705				
CC(=O)Oc1ccccc1C(=O)O [Acetylsalicylicacid] + CC(=O)O[C@H]1C[C@@]2(C)[C@@H](C[C@@H](O)[C@H]3[C@@]4(C)CC[C@@H](O)[C@@H](C)[C@@H]4CC[C@@]32C)/C1=C(\CCC=C(C)C)C(=O)O [Fusidic acid]	-0.0821	0.0354	-0.0211	0.0675				
CC1(C)S[C@@H]2[C@H](NC(=O)Cc3ccccc3)C(=O)N2[C@H]1C(=O)O [PenicillinG] + CN[C@H](CC(C)C)C(=O)N[C@H]1C(=O)N[C@@H](CC(N)=O)C(=O)N[C@H]2C(=O)N[C@H]3C(=O)N[C@H](C(=O)N[C@H](C(=O)O)c4cc(O)cc(O)c4-c4cc3ccc4O)[C@H](O)c3ccc(c(Cl)c3)Oc3cc2cc(c3O[C@@H]2O[C@H](CO)[C@@H](O)[C@H](O)[C@H]2O[C@H]2C[C@](C)(N)[C@H](O)[C@H](C)O2)Oc2ccc(cc2Cl)[C@H]1O [Vancomycin]	-0.039	-0.0205	0.0603	-0.162				
C[C@@H]1O[C@@H]1P(=O)(O)O [Fosfomycin] + CO[C@@]12[C@H](COC(N)=O)C3=C(C(=O)C(C)=C(N)C3=O)N1C[C@@H]1N[C@@H]12 [MitomycinC]	-0.116	0.0499	-0.095	0.117				

SMILES	Bliss interaction score [1]	Bliss interaction score [2]	Bliss interaction score [3]	Bliss interaction score [4]	Bliss interaction score ([1]; main component drawn)	Bliss interaction score ([2]; main component drawn)	Bliss interaction score ([3]; main component drawn)	Bliss interaction score ([4]; main component drawn)
O=C(O)c1cn(C2CC2)c2cc(N3CCNCC3)c(F)cc2c1=O [Ciprofloxacin] + N[C@@H]1CONC1=O [CycloserineD]	-0.0971	-0.0461	-0.105	0.0695				
N#CC(C#N)=NNc1cccc(Cl)c1 [CCCP] + CC1=C\[C@@H](O)CC(=O)Cc2nc(co2)C(=O)N2CCC=C2C(=O)O[C@H](C(C)C)[C@H](C)/C=C/C(=O)NC\C=C\1 [Virginiamycin M1]	-0.0262	0.0407	-0.0388	0.0981				
N#CC(C#N)=NNc1cccc(Cl)c1 [CCCP] + CN[C@H](CC(C)C)C(=O)N[C@H]1C(=O)N[C@@H](CC(N)=O)C(=O)N[C@H]2C(=O)N[C@H]3C(=O)N[C@H](C(=O)N[C@H](C(=O)O)c4cc(O)cc(O)c4-c4cc3ccc4O)[C@H](O[C@H]3C[C@](C)(N)[C@@H](O)[C@H](C)O3)c3ccc(c(Cl)c3)Oc3cc2cc(c3O[C@@H]2O[C@H](CO)[C@@H](O)[C@H](O)[C@H]2O[C@H]2C[C@](C)(NCc3ccc(-c4ccc(Cl)cc4)cc3)[C@@H](O)[C@H](C)O2)Oc2ccc(cc2Cl)[C@H]1O [Oritavancin]	0.0275	-0.0305	0.0576	0.0676				
CC(=O)Oc1ccccc1C(=O)O [Acetylsalicylicacid] + Clc1ccc(COC(Cn2ccnc2)c2ccc(Cl)cc2Cl)c(Cl)c1 [Miconazole]	0.0955	0.0658	0.0722	-0.0711				
CC1(C)S[C@@H]2[C@H](NC(=O)Cc3ccccc3)C(=O)N2[C@H]1C(=O)O [PenicillinG] + CN[C@@H]1[C@H](O)[C@H](NC)[C@H]2O[C@@]3(O)C(=O)C[C@@H](C)O[C@H]3O[C@@H]2[C@H]1O [Spectinomycin]	0.0272	-0.0365	-0.0496	0.0325				
CO/N=C(\C(=O)N[C@@H]1C(=O)N2C(C(=O)O)=C(COC(C)=O)CS[C@H]12)c1csc(N)n1 [Cefotaxime] + CCC[C@@H]1C[C@@H](C(=O)N[C@@H]([C@H]2O[C@H](SC)[C@H](O)[C@@H](O)[C@H]2O)[C@H](C)Cl)N(C)C1 [Clindamycin]	0.0327	0.0463	-0.0656	0.113				
CC(=O)Oc1ccccc1C(=O)O [Acetylsalicylicacid] + CC[C@H]1OC(=O)[C@H](C)[C@@H](O[C@H]2C[C@@](C)(OC)[C@@H](O)[C@H](C)O2)[C@H](C)[C@@H](O[C@@H]2O[C@H](C)C[C@H](N(C)C)[C@H]2O)[C@](C)(O)C[C@@H](C)C(=O)[C@H](C)[C@@H](O)[C@]1(C)O [Erythromycin]	0.184	0.1	0.144	0.0745				
CN(C)[C@@H]1C(O)=C(C(N)=O)C(=O)[C@@]2(O)C(O)=C3C(=O)c4c(O)ccc(Cl)c4[C@@](C)(O)[C@H]3C[C@@H]12 [Clortetracycline] + CN1C2=CC=CC=C2N=C3C1=CC=CC3=O [Pyocyanin]	0.0851	0.0397	-0.0515	-0.0238				
O=C(O)c1cn(C2CC2)c2cc(N3CCNCC3)c(F)cc2c1=O [Ciprofloxacin] + CO[C@@]12[C@H](COC(N)=O)C3=C(C(=O)C(C)=C(N)C3=O)N1C[C@@H]1N[C@@H]12 [MitomycinC]	-0.108	-0.057	0.0577	-0.111				
N#CC(C#N)=NNc1cccc(Cl)c1 [CCCP] + COc1cccc2c1C(=O)c1c(O)c3c(c(O)c1C2=O)C[C@@](O)(C(=O)CO)C[C@@H]3O[C@H]1C[C@H](N)[C@H](O)[C@H](C)O1 [Doxorubicin]	-0.0695	0.0424	-0.0546	-0.0519				
CC(=O)Oc1ccccc1C(=O)O [Acetylsalicylicacid] + CCP(CC)CC.CC(=O)OC[C@@H]1[C@H]([C@@H]([C@H]([C@@H](O1)[S-])OC(=O)C)OC(=O)C)OC(=O)C.[Au+] [Auranofin]	0.0526	-0.0726	0.0597	0.0631				
CO/N=C(\C(=O)N[C@@H]1C(=O)N2C(C(=O)O)=C(COC(N)=O)CS[C@H]12)c1ccco1 [Cefuroxime] + CC[C@H]1OC(=O)[C@H](C)[C@@H](O[C@H]2C[C@@](C)(OC)[C@@H](O)[C@H](C)O2)[C@H](C)[C@@H](O[C@@H]2O[C@H](C)C[C@H](N(C)C)[C@H]2O)[C@](C)(O)C[C@@H](C)C(=O)[C@H](C)[C@@H](O)[C@]1(C)O [Erythromycin]	-0.0464	-0.255	0.0555	0.0365				
CC1(C)S[C@@H]2[C@H](NC(=O)Cc3ccccc3)C(=O)N2[C@H]1C(=O)O [PenicillinG] + CN1C2=CC=CC=C2N=C3C1=CC=CC3=O [Pyocyanin]	-0.0227	0.0541	0.0699	0.144				
CN(C)[C@@H]1C(O)=C(C(N)=O)C(=O)[C@@]2(O)C(O)=C3C(=O)c4c(O)ccc(Cl)c4[C@@](C)(O)[C@H]3C[C@@H]12 [Clortetracycline] + Oc1cc(Cl)ccc1Oc1ccc(Cl)cc1Cl [Triclosan]	0.0578	-0.0936	0.021	0.117				
N#CC(C#N)=NNc1cccc(Cl)c1 [CCCP] + CC(=O)O[C@H]1C[C@@]2(C)[C@@H](C[C@@H](O)[C@H]3[C@@]4(C)CC[C@@H](O)[C@@H](C)[C@@H]4CC[C@@]32C)/C1=C(\CCC=C(C)C)C(=O)O [Fusidic acid]	-0.18	0.0429	0.0673	0.122				
CN(C)[C@@H]1C(O)=C(C(N)=O)C(=O)[C@@]2(O)C(O)=C3C(=O)c4c(O)ccc(Cl)c4[C@@](C)(O)[C@H]3C[C@@H]12 [Clortetracycline] + Cn1nnc(-c2ccc(-c3ccc(N4C[C@H](CO)OC4=O)cc3F)cn2)n1 [Tedizolid]	-0.105	-0.0502	-0.0562	0.0607				
